In experiment [1] the test system is R-(-)-2,2-DMCPCA-hydrolase. Put plainly: Hydrolase activity during biotransformation with whole cells. It counts as cell-based, Pseudomonas sp. NSAK:42 (DSM No. 6433). Particulars: 0.2 percent by weight substrate; otherwise conditions of Example 3. The procedure: (§1) To determine the activity of the hydrolase, the microorganism suspension was adjusted to an optical density of 0.5 at 650 nm. As a medium, a phosphate buffer (10 mmol), pH 7.0, with 0.2 percent by weight of R,S-2,2-DMCPCA, was used. This suspension was incubated for 3 hours at 30° C. with shaking. The NH4^+ released by the hydrolase or the R-(-)-2,2-DMCPCS was measured and the activity reacted as g of R-(-)-2,2-DMCPCA was expressed /1/h/ optical density at 650 nm, provided that 1 mmol of formed NH4^+ equals 1 mmol of reacted R-(-)-2,2-DMCPCA.
(§2) Comamonas acidovorans A:18 was incubated on mineral salt medium-agar plates with glycerin as a C-source and ammonium sulfate as an N-source for 2 days at 30° C. With these plated-out microorganisms, an initial culture medium with the same composition was inoculated and incubated for 2 days at 30° C. […] After an incubation of about 25 hours at 37° C., R-(-)-2,2-DMCPCA was completely reacted to R-(-)-2,2-DMCPCS, which corresponded to an optical purity (ee) of 100 percent and an analytically measured yield in S-(+)-2,2-DMCPCA of 46.7 percent. […]
Analogously to Example 1, Pseudomonas sp. […] The biotransformation was performed with 0.2 percent by weight of R,S-(±)-2,2-DMCPCA, and the activity of the hydrolase was determined as 0.34 g/1/h/OD650nm.

Experiment [2] relates to immobilized biocatalyst (polyethylene imine/glutaraldehyde treated cells). Put plainly: Activity of immobilized cells (immobilized biocatalyst). In kind it is cell-based, Comamonas acidovorans A:18. Particulars: cells immobilized by polyethylene imine/glutaraldehyde treatment. The method, then: After induction (corresponding to Example 3), the cells of Comamonas acidovorans A:18, were harvested. These cells were immobilized by a polyethylene imine/glutaraldehyde treatment (corresponding to Czechoslovakian Patent No. 251,111). […] The dry weight of the biocatalyst corresponded to 32 percent of the moist weight. Then, the biocatalyst (with 55 g moist weight) was suspended in 800 ml of boric acid (10 mM, pH 9.0) with 16 g of R,S-(±)-2,2-DMCPCA. After an incubation time of 68.8 hours at 37 C and at a stirring speed of 200 rpm, R-(-)-2,2-DMCPCA was completely reacted to R-(-)-2,2-DMCPCS, which corresponded to an optical purity (ee) of 98.2 percent and an analytically measured yield in S-(+)-2,2-DMCPCA of 40 percent.

For experiment [3], the system named is R-(-)-2,2-DMCPCA-hydrolase. The experiment in a line: Determination of activity of R-(-)-2,2-DMCPCA-hydrolase, microorganism suspension. In kind it is cell-based, Comamonas acidovorans A:18 (DSM No. 6315). Particulars: phosphate buffer 10 mmol pH 7.0, 0.2 percent by weight substrate, 3 hours. The procedure:
To determine the activity of the hydrolase, the microorganism suspension was adjusted to an optical density of 0.5 at 650 nm. As a medium, a phosphate buffer (10 mmol), pH 7.0, with 0.2 percent by weight of R,S-2,2-DMCPCA, was used. […] The NH4^+ released by the hydrolase or the R-(-)-2,2-DMCPCS was measured and the activity reacted as g of R-(-)-2,2-DMCPCA was expressed /1/h/ optical density at 650 nm, provided that 1 mmol of formed NH4^+ equals 1 mmol of reacted R-(-)-2,2-DMCPCA.

Experiment [4] concerns R-(-)-2,2-DMCPCA-hydrolase. The experiment in a line: Hydrolase activity during biotransformation with whole cells. It counts as cell-based, Bacterium sp. VIII:II (DSM No. 6316). The settings on record: 0.2 percent by weight substrate; otherwise conditions of Example 3. The method, then:
as §1, §2
In contrast to Example 3, the biotransformation in this microorganism was performed with 0.2 percent by weight of R,S-(±)-2,2-DMCPCA, and the activity of the hydrolase was determined as 0.13 g/1/h/OD650nm.

Experiment [5] relates to cell-free enzyme extract (R-(-)-2,2-DMCPCA-hydrolase). Put plainly: Activity of cell-free enzyme extract. In kind it is biochemical, Comamonas acidovorans A:18. The settings on record: 30 °C; phosphate buffer 10 mM pH 7.0; 0.2 percent by weight R,S-(±)-2,2-DMCPCA; about 0.8 mg of protein. The method, then: After induction, the cells of Comamonas acidovorans A:18 were concentrated to an optical density at 650 nm from 210 to 95 ml in the HEPES buffer (10 mM, pH 7.0). Then, the cells were broken down twice in the French press at a pressure of 1200 bars. To obtain a cell-free enzyme extract, all of this material was then centrifuged at 20,000 rpm for 20 minutes. In this cell-free enzyme extract, the amount of protein (measured according to the Bradford method) was then determined as 39.3 mg of protein/ml. To determine the activity of these cell-free enzymes, 20 microliters (about 0.8 mg of protein) of this cell-free enzyme extract was taken up in 4 ml of phosphate buffer (10 mM, pH 7.0), containing 0.2 percent by weight of R,S-(±)-2,2-DMCPCA and incubated at 30° C. Here, 2.5 g of R-(-)-2,2-DMCPCA/h/g of protein (3.64 micromol/min/g of protein) was converted to the corresponding acid.

Values joined by “and” are separate entries in the source; they are usually repeats but may differ in a detail not shown here. Identical values can stand only once.

With `CC1(C)CC1C(N)=O` (racemic) [R,S-(±)-2,2-DMCPCA, R,S-(±)-2,2-dimethylcyclopropanecarboxamide], the “activity of the hydrolase” value in experiment [1] was 0.34 g/1/h/OD650nm; in experiment [4] it was 0.13 g/1/h/OD650nm. In addition, in experiment [2], the “activity of the immobilized biocatalyst” value is 1.6 micromol/min g of dry weight. In addition, the “hydrolase Activity” value in experiment [3] (25 °C) is recorded as 0.25 g/l/h/OD650; in experiment [3] (30 °C) it was 0.5 g/l/h/OD650; in experiment [3] (37 °C), 1.0 g/l/h/OD650; in experiment [3] (45 °C), 1.5 g/l/h/OD650; in experiment [3] (48 °C), 1.8 g/l/h/OD650; in experiment [3] (55 °C), 1.9 g/l/h/OD650. For the same compound, in experiment [3] (65 °C), the “hydrolase Activity” value stood at 0 g/l/h/OD650.

With `CC1(C)C[C@H]1C(N)=O` [R-(-)-2,2-DMCPCA, R-(-)-2,2-dimethylcyclopropanecarboxamide], the “converted to the corresponding acid” value in experiment [5] was 2.5 g/h/g of protein and 3.64 micromol/min/g of protein.

(Values after patent publication US5273903A, “Biotechnological process for the production of S-(+)-2,2-dimethylcyclopropanecarboxamide” (Lonza Ltd., priority 1991, dated 1993).)
